Measured values published in ChEMBL document CHEMBL3885861, “Open TG-GATES”.

Species: Rattus norvegicus
Test: Open TG-GATES - Regimen: Single
Type: toxicity, organism-based, Sprague-Dawley
Design: regimen Single, gender Male, age 6 weeks
Settings: in vivo, po, 1000 mg/kg, route gavage, dose level High; for APTT / Bas / Eos / Fbg / Hb / Ht / Lym / MCH / MCHC / MCV / Mono / Neu / PT / Plat / RBC / Ret / WBC: tissue Blood; for KIDNEY_L / KIDNEY_R / KIDNEY_TOTAL: tissue Kidney; for LIVER: tissue Liver; for ALP / ALT / AST / BUN / CRE / Ca / Cl / DBIL / GLC / IP / K / LDH / Na / PL / RALB / TBIL / TC / TG / TP / gamma-GTP: tissue Plasma

COc1cc([C@@H]2c3cc4c(cc3[C@@H](O[C@@H]3O[C@@H]5CO[C@@H](C)O[C@H]5[C@H](O)[C@H]3O)[C@H]3COC(=O)[C@H]23)OCO4)cc(OC)c1O [ETOPOSIDE]
TERMINAL_BW (3 h): 199.8 g
APTT (3 h): 16.9 s
Bas (3 h): 0%
Eos (3 h): 1%
Fbg (3 h): 194.6 mg/dL
Hb (3 h): 13.4 g/dL
Ht (3 h): 39.9%
Lym (3 h): 75.2%
MCH (3 h): 22.5 pg
MCHC (3 h): 33.7%
MCV (3 h): 66.6 fL
Mono (3 h): 7.6%
Neu (3 h): 16.2%
PT (3 h): 12.1 s
Plat (3 h): 113.8 x10_4/uL
RBC (3 h): 599 x10_4/ul
Ret (3 h): 9.6%
WBC (3 h): 81.2 x10_2/uL
KIDNEY_L (3 h): 0.9 g
KIDNEY_R (3 h): 0.9 g
KIDNEY_TOTAL (3 h): 1.8 g
LIVER (3 h): 9.6 g
ALP (3 h): 906.2 IU/L
ALT (3 h): 35.8 IU/L
AST (3 h): 68 IU/L
BUN (3 h): 12.4 mg/dL
CRE (3 h): 0.4 mg/dL
Ca (3 h): 10.5 mg/dL
Cl (3 h): 104 meq/L
DBIL (3 h): 0.026 mg/dL
GLC (3 h): 186.8 mg/dL
IP (3 h): 9.8 mg/dL
K (3 h): 4.5 meq/L
LDH (3 h): 112.4 IU/L
Na (3 h): 141 meq/L
PL (3 h): 132 mg/dL
RALB (3 h): 3.3 g/dL
TBIL (3 h): 0.3 mg/dL
TC (3 h): 71.2 mg/dL
TG (3 h): 39.4 mg/dL
TP (3 h): 5.2 g/dL
gamma-GTP (3 h): 2 IU/L
TERMINAL_BW (6 h): 200.5 g
APTT (6 h): 16.7 s
Bas (6 h): 0%
Eos (6 h): 0.6%
Fbg (6 h): 194.4 mg/dL
Hb (6 h): 13.4 g/dL
Ht (6 h): 39.7%
Lym (6 h): 74.4%
MCH (6 h): 22.1 pg
MCHC (6 h): 33.8%
MCV (6 h): 65.4 fL
Mono (6 h): 10.6%
Neu (6 h): 14.6%
PT (6 h): 11.9 s
Plat (6 h): 114.8 x10_4/uL
RBC (6 h): 606.4 x10_4/ul
Ret (6 h): 11.1%
WBC (6 h): 76.4 x10_2/uL
KIDNEY_L (6 h): 0.9 g
KIDNEY_R (6 h): 0.9 g
KIDNEY_TOTAL (6 h): 1.8 g
LIVER (6 h): 8.9 g
ALP (6 h): 782.6 IU/L
ALT (6 h): 31.6 IU/L
AST (6 h): 65.8 IU/L
BUN (6 h): 11 mg/dL
CRE (6 h): 0.6 mg/dL
Ca (6 h): 10.4 mg/dL
Cl (6 h): 104 meq/L
DBIL (6 h): 0.006 mg/dL
GLC (6 h): 193.6 mg/dL
IP (6 h): 10.5 mg/dL
K (6 h): 4.8 meq/L
LDH (6 h): 105.4 IU/L
Na (6 h): 140 meq/L
PL (6 h): 140.2 mg/dL
RALB (6 h): 3.3 g/dL
TBIL (6 h): 0.3 mg/dL
TC (6 h): 82.8 mg/dL
TG (6 h): 39 mg/dL
TP (6 h): 5.2 g/dL
gamma-GTP (6 h): 1 IU/L
TERMINAL_BW (9 h): 193.9 g
APTT (9 h): 17.2 s
Bas (9 h): 0%
Eos (9 h): 0.6%
Fbg (9 h): 201 mg/dL
Hb (9 h): 13.8 g/dL
Ht (9 h): 41.4%
Lym (9 h): 86.4%
MCH (9 h): 21.9 pg
MCHC (9 h): 33.4%
MCV (9 h): 65.7 fL
Mono (9 h): 3.8%
Neu (9 h): 9.2%
PT (9 h): 11.3 s
Plat (9 h): 117 x10_4/uL
RBC (9 h): 630.4 x10_4/ul
Ret (9 h): 8.4%
WBC (9 h): 65.4 x10_2/uL
KIDNEY_L (9 h): 0.9 g
KIDNEY_R (9 h): 0.9 g
KIDNEY_TOTAL (9 h): 1.8 g
LIVER (9 h): 8.3 g
ALP (9 h): 794 IU/L
ALT (9 h): 29.4 IU/L
AST (9 h): 63.4 IU/L
BUN (9 h): 13.2 mg/dL
CRE (9 h): 0.5 mg/dL
Ca (9 h): 10.6 mg/dL
Cl (9 h): 105.4 meq/L
DBIL (9 h): 0.022 mg/dL
GLC (9 h): 212.6 mg/dL
IP (9 h): 10.1 mg/dL
K (9 h): 4.7 meq/L
LDH (9 h): 81.4 IU/L
Na (9 h): 142.2 meq/L
PL (9 h): 124.6 mg/dL
RALB (9 h): 3.5 g/dL
TBIL (9 h): 0.4 mg/dL
TC (9 h): 67.6 mg/dL
TG (9 h): 26.4 mg/dL
TP (9 h): 5.4 g/dL
gamma-GTP (9 h): 1.8 IU/L
TERMINAL_BW (24 h): 205.7 g
APTT (24 h): 16.4 s
Bas (24 h): 0%
Eos (24 h): 1%
Fbg (24 h): 207 mg/dL
Hb (24 h): 13.6 g/dL
Ht (24 h): 40.4%
Lym (24 h): 82.6%
MCH (24 h): 21.5 pg
MCHC (24 h): 33.6%
MCV (24 h): 63.9 fL
Mono (24 h): 9%
Neu (24 h): 7.4%
PT (24 h): 11.9 s
Plat (24 h): 111.5 x10_4/uL
RBC (24 h): 634 x10_4/ul
Ret (24 h): 6.1%
WBC (24 h): 56.3 x10_2/uL
KIDNEY_L (24 h): 1 g
KIDNEY_R (24 h): 1 g
KIDNEY_TOTAL (24 h): 1.9 g
LIVER (24 h): 8.8 g
ALP (24 h): 979.6 IU/L
ALT (24 h): 32 IU/L
AST (24 h): 66.6 IU/L
CRE (24 h): 0.5 mg/dL
Ca (24 h): 10.9 mg/dL
Cl (24 h): 104.8 meq/L
DBIL (24 h): 0.01 mg/dL
GLC (24 h): 182.8 mg/dL
IP (24 h): 9.2 mg/dL
K (24 h): 5 meq/L
LDH (24 h): 103.4 IU/L
Na (24 h): 140.2 meq/L
PL (24 h): 136.6 mg/dL
RALB (24 h): 3.5 g/dL
TBIL (24 h): 0.3 mg/dL
TC (24 h): 81 mg/dL
TG (24 h): 47.6 mg/dL
TP (24 h): 5.6 g/dL
gamma-GTP (24 h): 1.6 IU/L
